Data reported in article PMC6715447 (Science (New York, N.Y.), 2019).
pIC50: −log10 of the molar value.

Biological target: T1, cysteamine (2-aminoethanethiol) dioxygenase (ADO) (Homo sapiens, UniProt Q96SZ5)
T1 sequence (Q96SZ5 1-270): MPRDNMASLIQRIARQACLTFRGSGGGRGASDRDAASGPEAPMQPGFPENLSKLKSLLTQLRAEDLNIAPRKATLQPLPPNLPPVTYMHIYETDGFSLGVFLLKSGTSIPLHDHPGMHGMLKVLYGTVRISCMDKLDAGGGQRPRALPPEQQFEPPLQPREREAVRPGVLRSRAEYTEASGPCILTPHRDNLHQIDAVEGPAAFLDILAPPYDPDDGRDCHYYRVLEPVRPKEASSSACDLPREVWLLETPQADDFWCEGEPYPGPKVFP
Assay: competition of N-Cys peptide dioxygenation by recombinant ADO
Assay type: biochemical

pIC50 | SMILES
1.89 | N[C@@H](CS)C(=O)O [cysteine]
1.43 | NCCS [cysteamine]
